Test results published in patent US20260235604A1, “A NOVEL MARKER FOR CARDIOMYOCYTES DEDIFFERENTIATION” (National University of Singapore, priority 2023, published 2026).

Legend:
Format in all cases: cell-based, mouse
[1] = system: mTORC1; experiment: Western blot of GLUL, p-S6K1, p-4EBP1 in cultured ACMs with Asns KD; settings: Asn treatment of D4 Asns^KD ACMs
Description: Protein extraction was carried out using 6 M urea lysis buffer with 1 mM dithiothreitol, protease inhibitor and phosphatase inhibitor. For protein extraction from cultured ACMs and purified CMs, lysis buffer was added directly to the cells, followed by vigorous pipetting. For protein extraction from mouse heart apex, a piece of apex tissue resected from each mouse heart was weighted and submerged in 500 μL lysis buffer in a 2 mL Sarstedt tube. One single stainless-steel bead (diameter 5 mm) was added to each tube containing apex tissue in lysis buffer. The TissueLyser II was assembled as per manufacturer's guidelines with pre-chilled adapters. The apex tissue was homogenised for 20 s at 30 Hz for two rounds, until no visible tissue debris was observed. Protein quantification was done using Bio-Rad Protein Assay Kit I as per manufacturer's guidelines.
The protein lysate with loading buffer was heated at 60° C. for 10 mins before loading onto a 10% SDS-polyacrylamide gel. After transfer, the blotting membrane was blocked in 5% blotting-grade blocker in TBST for 1 hour, followed by primary antibody incubation at 4° C. overnight and secondary antibody incubation at room temperature (R.T.) for 1 hour. The blot was detected by ECL substrate reaction and exposure on a ChemiDoc™ touch imaging system (BioRad). The quantification of protein expression level was performed using Fiji software. […]

[2] = system: cultured ACMs; experiment: Propidium iodide (PI) staining of cultured ACMs (CM death); settings: eliminating Asn in cultured ACMs
Description: Purified CMs were either directly lysed for RNA and protein extraction, or pre-plated on uncoated cell culture dishes for 1 hour to further remove non-CMs before culture on laminin-coated cell culture plates. During the first two days of culturing (D0 and D1), 1 µM of blebbistatin (Sigma-Aldrich) was added as a specific myosin II inhibitor (see Kabaeva Z et al., 2008). Starting from D2, blebbistatin was removed to accelerate morphological changes of CMs. 10% FBS was included in the culture media during the whole culture procedure, and the small colonies of non-CMs were carefully scraped under a microscope and washed away daily. Images of CMs were captured using the EVOS® FL Cell Imaging System (Thermo Fisher) under different channels. PI (final concentration 1 μg/mL) and Hoechst (final concentration 1 μg/mL) was added at a to cultured ACMs, and incubated at 37° C. for 45 mins. The ACMs were immediately imaged by Nikon inverted microscope Eclipse Ti-E. For each well in the cell cultured dishes, 8 to 9 random regions were imaged. PI+ CMs were quantified using Fiji software.

[3] = system: cultured ACMs; experiment: RT-qPCR of cell cycle genes in cultured ACMs
Description: For freshly isolated mouse CMs, a total number of about 120,000 CMs (⅛ of total CMs) per heart were lysed by 1 mL TRIzol™ Reagent. To lyse cultured CMs, 1 mL TRIzol™ Reagent was added to each well in 12-well and 6-well cell culture plates. Total RNA extraction was performed as per manufacturer's protocol.
cDNA was synthesised with oligo dT and random primers using the qScript™ cDNA Synthesis Kit. qPCR was performed with PerfeCTa® Low Rox™ ToughMix™ (Quantabio) on a real-time PCR system. All qPCR data were normalised to the expression of housekeeping genes Gapdh and Rplp0.

For `NC(=O)C[C@H](N)C(=O)O` [Asn, asparagine], the p-4EBP1 [1] was “restored” and the p-S6K1 [1] was “promoted”.

B1: L-asparaginase (protein, UniProt P00805 23-348, looked up)
L-asparaginase 2: LPNITILATGGTIAGGGDSATKSNYTVGKVGVENLVNAVPQLKDIANVKGEQVVNIGSQDMNDNVWLTLAKKINTDCDKTDGFVITHGTDTMEETAYFLDLTVKCDKPVVMVGAMRPSTSMSADGPFNLYNAVVTAADKASANRGVLVVMNDTVLDGRDVTKTNTTDVATFKSVNYGPLGYIHNGKIDYQRTPARKHTSDTPFDVSKLNELPKVGIVYNYANASDLPAKALVDAGYDGIVSAGVGNGNLYKSVFDTLATAAKTGTAVVRSSRVPTGATTQDAEVDDAKYGFVASGTLNPQKARVLLQLALTQTKDPQQIQQIFNQY
In the case of B1, the cell death [2] is reported as “did not induce more cell death” and the “expression of cell cycle genes (Cdk1, Mki67, Aukrb)” value [3] is reported as “diminished”.
